Measurements taken from PMC7617869, “Molecular glues that inhibit deubiquitylase activity and inflammatory signaling” (Nature Structural & Molecular Biology, 2025).
Where “and” joins values, the source holds several entries; their conditions need not be identical. Identical values can stand only once.

Columns and labels:
[1] = tested on: IFNAR1 cell surface levels in sgROSA MCF10A cells; assay: MCF10A sgROSA IFNAR1 cell surface levels (FACS); format: cell-based, human; settings: IFN + compound; three replicates
Description: To study the direct effect of BRISC DUB inhibitors, IFNAR1 surface levels were measured using flow cytometry (FACS) analysis. For this purpose, MCF10A WT and MCF10A BRCC45 KO cells expressing […]
BRCC45 WT or BRCC45 R137A were used. […]
minutes prior to the addition of 50 ng/mL of hIFN-Iα for various time points (45 minutes and 90 minutes).
After IFN treatment, cells were dissociated from plate using cell dissociation Buffer (ThermoFisher Scientific, #13150016) and were stained with LIVE/DEAD™ Fixable Violet Dead Cell Stain Kit, for 405 nm excitation (ThermoFisher Scientific, #L34963) for 30 minutes, as per the kit protocol. The cells were then washed using FACS buffer (DPBS, 1% BSA, 2 mM EDTA, 0.09% sodium azide) and transferred to 96-well round bottom plates. Resuspended cells were divided into three repeats for each sample, each was surface stained for 1 hour at 4 °C with: 1. Human IFN-alpha/beta R1 Antibody (R&D systems, #MAB245), 2. Mouse IgG1 Isotype Control (R&D systems, #MAB002), 3. FACS buffer (control cells).
Following incubation, cells were washed once with FACS buffer and were labelled for 30 minutes at 4 °C with either Biotin-SP-conjugated AffiniPure Donkey Anti-Mouse IgG (H+L) (Jackson Immunoresearch Laboratories) for samples 1 and 2 or with FACS buffer for sample 3. Cells were washed twice with FACS buffer and were labelled for 15 minutes at 4 °C with either R-Phycoerythrin-conjugated Streptavidin (Jackson Immunoresearch Laboratories) for samples 1 and 2 or with FACS buffer for sample 3. Cells were washed 3 times with FACS buffer and were analysed by FACS (MACSQuant, Miltenyi Biotec). For each sample from group 1 the Geo mean fluorescence intensity (MFI) of its isotype sample was reduced. IFNAR1 cell surface percentage was calculated by 100*(MFI

[2] = tested on: ISG expression in SSc PBMCs; assay: SSc PBMC type I IFN signaling gene expression array, unstimulated; format: cell-based, human; settings: unstimulated PBMCs from SSc patients; one value per patient (P1-P9)
Description: PBMCs in vitro experiments
Peripheral blood mononuclear cells (PBMCs) from healthy and SSc donors were separated using density gradient method (Leucosep™, Greiner Bio-One International) from EDTA anticoagulated peripheral blood; isolated cells were washed twice by PBS. PBMCs were then incubated in RPMI1640 […]
For healthy PBMCs, cells were stimulated with 20 ng/mL of IFN (+/- compounds or DMSO). For SSc PBMCs, cells were in basal conditions with no additional IFN stimulation. Cells were centrifuged at 300 g for 10 minutes. […]
RNA was extracted from cell pellets using TRIzol™ (ThermoFisher
Scientific, Waltham, MA) and processed using Quick-RNA Miniprep Kit (Zymo Research) as per the manufacturer’s instruction.
For Type I IFN signalling analysis, the human IFN I RT2 Profiler PCR Array (Qiagen, PAMM-016ZE) was performed on available RNA from healthy (n=3) and SSc (n=9) donors. RNA was converted to cDNA using RT2 First Strand Kit (Qiagen). Next, the cDNA was mixed with RT2 SYBR Green Mastermix (Qiagen, Venlo). Successful PCR performance was confirmed by assay tests for genomic DNA contamination, RNA sample quality, as well as single melt curve determination and <35 Ct for each gene, leading to validated gene expression of 67 genes. Relative expression for each gene was determined, firstly by ∆CT calculated using the geometric mean of 4 housekeeping genes (ACTB, GAPDH, HPRT1, RPLP0), followed by 2^(-∆CT), and expressed as fold change to control, according to manufacturer’s guidance. IFN2α-induced ISGs in healthy donors were determined using a Student’s t-test (two-tail distribution and equal variances) on the triplicate fold change in 2^(-ΔCT) values between […]
donors). Heatmaps were generated using the “pheatmap” function in R (v4.0.2) and RStudio (v1.3.1093) applying row scaling to standardise the expression data across samples (R core team 2020.
R Foundation for Statistical Computing). The IFN2α inducible genes determined in healthy donors […]
171-C. To account for Type I IFN signalling heterogeneity across samples, the mean 2^(-∆CT) for each […]
relative gene expression, illustrated as a fold change and visualised in log2. The Type I IFN signalling array data for the patient samples is included in Source Data Figure 6, Extended Data Fig. 9.

With Cn1cc(NC(=O)c2c(Cl)cccc2Cl)c(C(=O)NC2CCN(C(=O)c3c(Cl)cccc3Cl)CC2)n1 [AP-5-145] the “IFNAR1 cell surface levels” value [1] was 50.5911 and 49.9799 and 55.4831, the “ADAR, Type I IFN signalling array raw data” value [2] was 3.585 and 4.485 and 4.334 and 4.353 and 5.313 and 4.699 and 4.415 and 5.111 and 3.559 and the “BST2, Type I IFN signalling array raw data” value [2] was 3.184 and 2.458 and 3.302 and 3.672 and 2.309 and 1.595 and 4.59 and 3.685 and 1.654. For the same compound, the “CASP1, Type I IFN signalling array raw data” value [2] was 1.628 and 0.9815 and 2.95 and 3.664 and 1.948 and 2.361 and 2.033 and 2.206 and 1.183, the “CD86, Type I IFN signalling array raw data” value [2] was 4.785 and 2.783 and 4.5852 and 3.1897 and 4.314 and 3.552 and 4.0343 and 4.013 and 3.55 and the “CXCL10, Type I IFN signalling array raw data” value [2] was 2.8643 and 6.708 and 5.453 and 2.734 and 4.396 and 4.529 and 5.68 and 6.078 and 3.688. The “DDX58, Type I IFN signalling array raw data” value [2] was 2.4595 and 2.543 and 3.026 and 3.209 and 2.763 and 1.787 and 3.543 and 4.173 and 1.175, the “GBP1, Type I IFN signalling array raw data” value [2] was 0.1474 and 2.145 and 2.622 and 1.459 and 0.8545 and 1.754 and 2.939 and 2.1766 and -0.4621 and the “IFI6, Type I IFN signalling array raw data” value [2] was 2.465 and 2.227 and 2.936 and 2.73 and 1.772 and 0.8033 and 3.207 and 3.6638 and 1.0872. The “IFI16, Type I IFN signalling array raw data” value [2] was 1.83 and 1.644 and 2.049 and 2.362 and 1.331 and 1.292 and 2.492 and 2.951 and 1.1658, the “IFIH1, Type I IFN signalling array raw data” value [2] was 3.174 and 3.642 and 3.693 and 3.986 and 3.429 and 3.042 and 4.0109 and 5.193 and 2.582 and the “IFIT1, Type I IFN signalling array raw data” value [2] was 4.24 and 3.643 and 3.989 and 4.293 and 2.488 and 1.397 and 4.575 and 7.138 and 1.6699. For the same compound, the “IFIT2, Type I IFN signalling array raw data” value [2] was 3.353 and 3.202 and 2.7801 and 3.719 and 2.327 and 0.07597 and 4.728 and 5.592 and 0.851, the “IFIT3, Type I IFN signalling array raw data” value [2] was 2.463 and 3.281 and 3.064 and 3.575 and 3.043 and 1.248 and 5.135 and 5.476 and 1.263 and the “IFITM1, Type I IFN signalling array raw data” value [2] was -0.2471 and 0.1243 and 0.2716 and 1.178 and 0.8183 and 0.3168 and 1.196 and 1.705 and -0.8285. The “IFITM2, Type I IFN signalling array raw data” value [2] was 3.999 and 3.471 and 4.22 and 5.1798 and 5.262 and 5.108 and 4.673 and 5.09 and 4.191, the “IFITM3, Type I IFN signalling array raw data” value [2] was 3.006 and 2.32 and 3.244 and 3.786 and 1.434 and -0.1662 and 3.42 and 4.49 and -0.2026 and the “IRF1, Type I IFN signalling array raw data” value [2] was 1.06 and 1.224 and 2.232 and 2.144 and 1.15 and 2.067 and 2.585 and 1.973 and 0.5242. The “IRF7, Type I IFN signalling array raw data” value [2] was 5.407 and 5.206 and 4.576 and 6.178 and 4.455 and 3.933 and 5.89 and 5.935 and 9.933, the “IRF9, Type I IFN signalling array raw data” value [2] was 2.066 and 2.065 and 2.241 and 2.2692 and 1.294 and 1.106 and 2.973 and 2.809 and 0.8366 and the “ISG15, Type I IFN signalling array raw data” value [2] was 2.596 and 6.312 and 3.3545 and 3.693 and 0.9621 and 0.3667 and 4.1244 and 6.015 and 0.1079. For the same compound, the “ISG20, Type I IFN signalling array raw data” value [2] was 2.432 and 2.479 and 2.547 and 3.375 and 2.843 and 3.174 and 3.393 and 3.464 and 1.322, the “MX1, Type I IFN signalling array raw data” value [2] was 4.424 and 4.226 and 3.58 and 4.634 and 2.28 and 2.399 and 4.395 and 5.558 and 2.679 and the “MX2, Type I IFN signalling array raw data” value [2] was 4.173 and 3.658 and 2.952 and 4.357 and 2.358 and 2.074 and 3.745 and 4.851 and 2.355. For the same compound, the “MYD88, Type I IFN signalling array raw data” value [2] was 3.563 and 2.295 and 2.992 and 3.3169 and 2.321 and 1.993 and 3.136 and 2.869 and 2.18, the “NMI, Type I IFN signalling array raw data” value [2] was 1.73 and 1.406 and 2.205 and 1.958 and 1.878 and 1.724 and 2.633 and 2.762 and 1.099 and the “OAS1, Type I IFN signalling array raw data” value [2] was 3.537 and 3.8519 and 3.958 and 4.26 and 2.489 and 2.393 and 5.01 and 4.925 and 2.848. For the same compound, the “OAS2, Type I IFN signalling array raw data” value [2] was 3.256 and 3.665 and 3.696 and 4.93 and 3.216 and 2.622 and 4.725 and 4.971 and 2.257, the “PML, Type I IFN signalling array raw data” value [2] was 3.769 and 4.451 and 4.457 and 4.682 and 3.169 and 3.581 and 5.048 and 5.21 and 2.632 and the “SOCS1, Type I IFN signalling array raw data” value [2] was 4.276 and 3.145 and 2.943 and 3.915 and 3.6717 and 2.288 and 4.381 and 4.149 and 1.789. For the same compound, the “STAT1, Type I IFN signalling array raw data” value [2] was -1.171 and 0.5507 and 0.704 and -0.4526 and -0.2783 and 1.689 and 0.5533 and 0.2423 and -1.283, the “STAT2, Type I IFN signalling array raw data” value [2] was 3.543 and 4.373 and 3.597 and 3.344 and 3.627 and 3.236 and 4.148 and 3.986 and 2.129 and the “STAT3, Type I IFN signalling array raw data” value [2] was 1.898 and 1.636 and 1.633 and 5.446 and 2.412 and 1.5196 and 2.3996 and 2.61 and 1.33. The “TAP1, Type I IFN signalling array raw data” value [2] was 1.436 and 1.649 and 2.5757 and 2.2546 and 2.075 and 1.836 and 3.734 and 2.309 and 0.9557 and the “TNFSF10, Type I IFN signalling array raw data” value [2] was 2.318 and 2.989 and 3.028 and 3.374 and 2.092 and 2.434 and 3.558 and 3.768 and 2.177.
